Literature values as cited in patent US20220117972A1, “USE OF PPAR-DELTA AGONISTS IN THE TREATMENT OF MITOCHONDRIAL MYOPATHY” (Reneo Pharmaceuticals, Inc., priority 2019, published 2022).

System: control myoblasts
Conditions: cultured patient muscle cells study; cited from earlier work

Compound | FAO stimulation
CC(C)(Sc1ccc(CCN(CCCCC2CCCCC2)C(=O)NC2CCCCC2)cc1)C(=O)O [GW 7647] | to a lower extent
Cc1cc(SCc2sc(-c3ccc(C(F)(F)F)c(F)c3)nc2C)ccc1OCC(=O)O [GW 072] | stimulated FAO
